Test results published in patent US20120258975A1, “Potent Small Molecule Inhibitors of Autophagy, and Methods of Use Thereof” (Shanghai Institute of Organic Chemistry, priority 2009, published 2012).

Experiments:
bax/bak DKO MEF cells = assay: Etoposide induced cell death of bax/bak DKO cells; assay type: cell-based, mouse; conditions: etoposide 8 μM; MBCQ 10 μM, spautin 10 μM, 3-MA 10 mM; 8 h
Protocol: C, cells were collected for western blotting using anti-LC3 antibody. α-tubulin was used as a control. D-F, Bax/bak DKO cells were treated with spautin (10 μM) or indicated concentration, in the presence of or absent etoposide (8 μM) for 8 h or indicated time. […] F, Cells were collected for western blotting using anti-LC3 antibody. α-tubulin was used as a control.
Autophagy has been proposed to contribute to cell death in a number of apoptotic deficient cell types. For example, bax/bak double deficient mouse embryonic fibroblast cells (DKO mefs) are highly resistant to apoptosis (Wei, M. C., Zong, W. X., Cheng, E. H., Lindsten, T., Panoutsakopoulou, V., Ross, A. J., Roth, K. A., MacGregor, G. R., Thompson, C. B., and Korsmeyer, S. J. (2001). Proapoptotic BAX and BAK: a requisite gateway to mitochondrial dysfunction and death. Science 292, 727-730).

[1] = tested on: LC3-GFP (H4-LC3-GFP cells); assay: Starvation induced autophagy in H4-LC3-GFP cells; assay type: cell-based; conditions: Hanks buffer 1 h; MBCQ 5 μM, 3-MA 10 mM, wortmannin 0.1 μM
Text: FIG. 2 depicts results relating to MBCQ inhibition of autophagy induced by starvation. Quantitative measurement of LC3-GFP spot number per cell (a), spot size per cell (b) and spot intensity per cell (c) using HCS and expressed as % of control.

Vps34 complexes = assay: Levels of endogenous Beclin1, Vps34, Atg14L in H4 and 293T cells (western blot); conditions: H4 cells and 293T cells; 10 μM; 3-MA 10 mM
Protocol: Twenty-four hours after the transfection, the cells were treated with indicated compounds for 12 h. The cell lysates were analyzed by western blotting using anti-HA, anti-flag or anti-tubulin. […] The cell lysates were harvested and analyzed by western blotting using: anti-Beclin1, anti-Atg14, anti-Vps34 and anti-UVRAG. Anti-α-tubulin was used as loading controls. […] The cell lysates were harvested and analyzed by western blotting using: anti-Beclin1 and anti-LC3. Anti-α-tubulin was used as loading controls.

LC3-GFP (H4-LC3 cells) = assay: LC3-GFP image-based autophagy assay in H4-LC3 cells; assay type: cell-based; conditions: with rapamycin; MY-5445 30 μM, dipyridamole 80 μM, IBMX 100 μM, sildenafil 10 μM
Protocol: FIG. 1 relates to identification of a small molecule inhibitor of autophagy by an image-based screen. A, structure of MBCQ. B, Quantitative analysis of LC3-GFP spot number per cell (a), spot size per cell (b), spot intensity per cell (c). The data are expressed as % of control vehicle treated cells. H4-LC3 cells were seeded in 96 well-plates and incubated with vehicle control (1% DMSO), 0.2 μM rapamycin with or without 10 μM MBCQ for indicated time, fixed with 4% paraformaldehyde and stained with 4,6-diamidino-2-phenylindole (DAPI, 3 μg/ml). Images of 1000 cells for each compound treatment were analyzed by ArrayScan HCS 4.0 Reader with a 20× objective (Cellomics, Pittsburgh, Pa.).
(§1) FIG. 14 depicts MBCQ derivatives that can inhibit autophagy. To calculate EC50, H4-LC3 cells were seeded in 96 well-plates and cultured in the presence of compounds in different concentration for 24 h, and then fixed with polyformate and stained with 4,6-diamidino-2-phenylindole (DAPI, 3 μg/ml). Images data were collected with an ArrayScan HCS 4.0 Reader with a 20× objective (Cellomics, Pittsburgh, Pa.) for DAPI labeled nuclei and GFP-LC3, a marker for autophagy. The Spot Detector Bio-Application was used to acquire and analyze the images after optimization. Images of 1000 cells for each compound treatment were analyzed to obtain average cell number per field, fluorescence spot number, area and intensity per cell. DMSO and rapamycin were used as negative or positive control, respectively. The percentages of changes of LC3-GFP were calculated by dividing with that of DMSO treated samples. Each treatment was done in triplicate for mean and SD. The images were also analyzed using a conventional fluorescence microscope for visual inspection. The experiments were repeated three times
as §1, with “15” for “14”, “with reduced or no ability to” for “that can”, “times.” for “times”
To explore the mechanism of autophagy and identify additional small molecules that can activate it, a high-throughput image-based screen for autophagy regulators was developed. This system takes advantage of the localization of light chain 3 coupled to GFP (LC3-GFP) to autophagosomal membrane upon induction of autophagy (Zhang, L., Yu, J., Pan, H., Hu, P., Hao, Y., Cai, W., Zhu, H., Yu, A. D., Xie, X., Ma, D., et al. (2007). Small molecule regulators of autophagy identified by an image-based high-throughput screen. Proc Natl Acad Sci USA 104, 19023-19028). […] Compounds that increase cellular levels of LC3-GFP, however, are not necessarily able to increase degradative activity of autophagy. Instead, the increases of LC3-GFP may be associated with cell death or may be a result of lysosomal defect and thus associated with blockage of autophagy. […]

PDE5 = PDE5 (Homo sapiens, UniProt O76074); assay: Determination of % inhibition of PDE5 activity; assay type: biochemical; conditions: for inhibition at 0.2 µM: Concentration = 0.2 μM; for inhibition at 2 µM: Concentration = 2 μM; for inhibition at 20 µM: Concentration = 20 μM

| Compound | activity on autophagy (LC3-GFP (H4-LC3 cells)) | inhibition at 0.2 µM (PDE5) [%] | inhibition at 2 µM (PDE5) [%] | inhibition at 20 µM (PDE5) [%] | also measured |
| --- | --- | --- | --- | --- | --- |
| Cn1cnc(N)c2ncnc1-2 [3-MA, 3-methyladenine] | – | – | – | – | cell death induced by etoposide (bax/bak DKO MEF cells): inhibits etoposide induced death; starvation induced autophagy (LC3-GFP spot number, size, intensity) [1]: inhibited; levels of endogenous Beclin1, Vps34 and Atg14L (Vps34 complexes): no effect on endogenous Beclin1 |
| CC(C)Cn1c(=O)n(C)c(=O)c2[nH]cnc21 [IBMX] | None of the PDE5 inhibitors tested | – | – | – | – |
| Clc1cccc(Nc2nnc(-c3ccccc3)c3ccccc23)c1 [MY-5445] | None of the PDE5 inhibitors tested | – | – | – | – |
| CCCc1nn(C)c2c(=O)[nH]c(-c3cc(S(=O)(=O)N4CCN(C)CC4)ccc3OCC)nc12 [Sildenafil] | None of the PDE5 inhibitors tested | 96.5 | 98.8 | 102 | – |
| CCCOc1ccccc1-c1nc2nn[nH]c2c(=O)[nH]1 [Zaprinast] | – | 38 | 88.4 | 102 | – |
| OCCN(CCO)c1nc(N2CCCCC2)c2nc(N(CCO)CCO)nc(N3CCCCC3)c2n1 [dipyridamole] | None of the PDE5 inhibitors tested | – | – | – | – |
